The target in experiment [1] is SNAP-hSPR (sepiapterin reductase, SPR) (Homo sapiens, UniProt P35270). The experiment is described as follows: biochemical. The settings on record: terbium labelled SNAP-hSPR / SSZ labelled SNAP-EGFP; read-out: hTR-FRET IC50. It is filed as binding.
Experiment [2] has as its system BH4 production in human peripheral blood mononuclear cells (PBMCs). As to the kind of experiment: hPBMC assay, inhibition of BH4 production by LC-MS (anti-CD3/anti-CD28 stimulated). Type of experiment: cell-based. The settings on record: PBMC, read-out: hPBMC IC50.
Procedure: hPBMC Assay: PBMCs were either purchased or isolated from fresh human blood and used either as a fresh preparation or frozen for later use. The assay system was prepared by pre-treating the assay plates overnight with a solution containing anti-human CD3 antibody. Human PBMCs were suspended in assay medium and plated into the assay plates at a density of 1-4×10^5 cells per well. The desired concentration of the test compound was added to each well. A solution of human anti-CD28 antibody was also added to each well. Plates were incubated for 12-48 hours at 37° C. and 5% CO2. Assay plates were centrifuged for 5-15 minutes at 1-3000 RMP and supernatants were removed. The cells were lysed, sealed and used directly or frozen at −80° C. LC-MS was used to quantify the amount of inhibition of BH4 production.
PBMCs were either purchased or isolated from fresh human blood and used either as a fresh preparation or frozen for later use. The assay system was prepared by pre-treating the assay plates overnight with a solution containing anti-human CD3 antibody. Human PBMCs were suspended in assay medium and plated into the assay plates at a density of 1-4×10^5 cells per well. The desired concentration of the test compound was added to each well. A solution of human anti-CD28 antibody was also added to each well. Plates are incubated for 12-48 hours at 37° C. and 5% CO2. Assay plates were centrifuged for 5-15 minutes at 1-3000 RMP and supernatants were removed. The cells were lysed, sealed and used directly or frozen at −80° C.

Data on 41 molecules can be found in patent US9963462B2 (priority 2015, dated 2018).

The structures appear in SMILES notation.

Sequence of SNAP-hSPR (sepiapterin reductase, SPR) (P35270 whole entry): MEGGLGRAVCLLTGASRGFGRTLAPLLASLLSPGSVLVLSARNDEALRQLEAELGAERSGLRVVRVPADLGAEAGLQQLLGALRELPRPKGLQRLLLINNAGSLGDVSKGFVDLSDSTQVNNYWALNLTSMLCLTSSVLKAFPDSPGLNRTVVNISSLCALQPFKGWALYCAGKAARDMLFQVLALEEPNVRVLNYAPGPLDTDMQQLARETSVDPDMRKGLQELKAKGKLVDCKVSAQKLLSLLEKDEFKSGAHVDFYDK

As to `Cc1c(C(=O)N2CCC(c3nc(-c4ccccc4)co3)CC2)cnn1-c1nc2c(c(=O)[nH]1)CCC2` [Q-1079], the IC50 in experiment [1] amounted to 3 nM; in experiment [2], 74 nM.
For `Cc1c(C(=O)N2CCC(c3nc(-c4ccccc4)co3)CC2)cnn1-c1nn2cccc2c(=O)[nH]1` [Q-1080], the IC50 in experiment [1] worked out at 2 nM; in experiment [2], 25 nM.
Turning to `Cc1c(C(=O)N2CC3CCCC(C2)N3CC(F)(F)F)cnn1-c1nc2c(c(=O)[nH]1)CCC2` [Q-1081], the IC50 in experiment [1] was 2 nM; in experiment [2], 130 nM.
For the molecule `Cc1c(C(=O)N2CC(N3CC(C(F)(F)F)C3)C2)cnn1-c1nn2cccc2c(=O)[nH]1` [Q-1082], the values for the IC50 in experiment [1] and in experiment [2] were 4 nM and 120 nM, respectively.
Consider `Cc1c(C(=O)N2C3CC2CN(CC(F)(F)F)C3)cnn1-c1nn2cccc2c(=O)[nH]1` [Q-1083], for which the IC50 in experiment [1] worked out at 1 nM; in experiment [2] it was 68 nM.
Turning to `Cc1c(C(=O)N2CCC(c3nc(-c4cccnc4)cs3)CC2)cnn1-c1nc2c(c(=O)[nH]1)CCC2` [Q-1084], the concentration for half-maximal inhibition (IC50) in experiment [1] came to 2 nM; in experiment [2], 13 nM.
The corresponding values for `Cc1c(C(=O)N2CCC(C(=O)N3CCC3)(C(F)(F)F)CC2)cnn1-c1nn2cccc2c(=O)[nH]1` [Q-1085] are 1 nM and 63 nM.
The corresponding values for `Cc1c(C(=O)N2CCC(C(=O)N3CCCCC3)(C(F)(F)F)CC2)cnn1-c1nn2cccc2c(=O)[nH]1` [Q-1086] are 1 nM and 84 nM.
Consider `Cc1c(C(=O)N2CCC(C3(C#N)CCC3)CC2)cnn1-c1nc2c(c(=O)[nH]1)CCC2` [Q-1087], for which the IC50 in experiment [1] came out at 2 nM; in experiment [2], 29 nM.
With `Cc1c(C(=O)N2CCC3(CC2)CC3C(=O)N2CCC2)cnn1-c1nn2cccc2c(=O)[nH]1` (stereo not shown) [Q-1088], the IC50 is 4 nM in experiment [1] and 290 nM in experiment [2].
The matching figures for `Cc1c(C(=O)N2CCC3(CC2)CC3C(=O)N2CCC2)cnn1-c1nc2c(c(=O)[nH]1)CCC2` (stereo not shown) [Q-1089]: 3 nM and 350 nM.
The matching figures for `Cc1c(C(=O)N2CCC(c3nc(C(N)=O)cs3)CC2)cnn1-c1nc2c(c(=O)[nH]1)CCC2` [Q-1091]: 2 nM and 130 nM.
The matching figures for `Cc1c(C(=O)N2CCC(O)(C3(C#N)CC3)CC2)cnn1-c1nn2cccc2c(=O)[nH]1` [Q-1092]: 1 nM and 330 nM.
On to `Cc1c(C(=O)N2CCC(c3nc(C#N)cs3)CC2)cnn1-c1nn2cccc2c(=O)[nH]1` [Q-1093], for which the figures for the IC50 in experiment [1] and in experiment [2] were 1 nM and 95 nM, respectively.
The corresponding values for `Cc1c(C(=O)N2C3CCC2CN(C2CC2)C3)cnn1-c1nn2cccc2c(=O)[nH]1` [Q-1094] are 1 nM and 99 nM.
The corresponding values for `C=C(C1CCN(C(=O)c2cnn(-c3nn4cccc4c(=O)[nH]3)c2C)CC1)C(F)(F)F` [Q-1095] are 1 nM and 27 nM.
In the case of `C=C(C1CCN(C(=O)c2cnn(-c3nc4c(c(=O)[nH]3)CCC4)c2C)CC1)C(F)(F)F` [Q-1096], the values for the IC50 in experiment [1] and in experiment [2] were 1 nM and 18 nM, respectively.
The matching figures for `Cc1c(C(=O)N2CCC(c3nc(-c4cccnc4)cs3)CC2)cnn1-c1nn2cccc2c(=O)[nH]1` [Q-1097]: 1 nM and 24 nM.
Turning to `Cc1c(C(=O)N2CCC(CCCF)C2)cnn1-c1nn2cccc2c(=O)[nH]1` (stereo not shown) [Q-1098], the results for the IC50 in experiment [1] and in experiment [2] were 1 nM and 210 nM, respectively.
The matching figures for `Cc1c(C(=O)N2CCC(c3nc(-c4ccccn4)cs3)CC2)cnn1-c1nn2cccc2c(=O)[nH]1` [Q-1099]: 1 nM and 60 nM.
The corresponding values for `Cc1c(C(=O)N2CCC(c3nc(-c4ccccn4)cs3)CC2)cnn1-c1nc2c(c(=O)[nH]1)CCC2` [Q-1100] are 1 nM and 31 nM.
The matching figures for `Cc1c(C(=O)N2CCC(c3nc(-c4ccncc4)cs3)CC2)cnn1-c1nn2cccc2c(=O)[nH]1` [Q-1101]: 1 nM and 41 nM.
In the case of `CCC(C#N)C1(F)CCN(C(=O)c2cnn(-c3nc4c(c(=O)[nH]3)CCC4)c2C)CC1` (stereo not shown) [Q-1102], the 50% inhibitory concentration (IC50) in experiment [1] was found to be 1 nM; in experiment [2], 58 nM.
The corresponding values for `CCC(C#N)C1=CCN(C(=O)c2cnn(-c3nc4c(c(=O)[nH]3)CCC4)c2C)CC1` (stereo not shown) [Q-1103] are 1 nM and 100 nM.
The corresponding values for `Cc1c(C(=O)N2CCC(c3nc(C#N)cs3)CC2)cnn1-c1nc2c(c(=O)[nH]1)CCC2` [Q-1104] are 3 nM and 110 nM.
The corresponding values for `Cc1c(C(=O)N2CCC(c3ccc(F)nc3)CC2)cnn1-c1nn2cccc2c(=O)[nH]1` [Q-1105] are 1 nM and 18 nM.
As for `Cc1c(C(=O)N2CC3CC(C2)N3CC(F)(F)F)cnn1-c1nn2cccc2c(=O)[nH]1` [Q-1106], the IC50 in experiment [1] amounted to 1 nM; in experiment [2], 93 nM.
Turning to `Cc1c(C(=O)N2C3CCC2CN(c2nccs2)C3)cnn1-c1nn2cccc2c(=O)[nH]1` [Q-1107], the IC50 in experiment [1] came to 1 nM; in experiment [2], 58 nM.
The matching figures for `Cc1c(C(=O)N2CCC(c3nc(C(F)(F)F)cs3)CC2)cnn1-c1nn2cccc2c(=O)[nH]1` [Q-1108]: 1 nM and 50 nM.
The corresponding values for `Cc1c(C(=O)N2CC3CCCC(C2)C3(O)C(F)(F)F)cnn1-c1nn2cccc2c(=O)[nH]1` (stereo not shown) [Q-1109] are 1 nM and 46 nM.
The matching figures for `C=CCC(C#N)(CC=C)C1CCN(C(=O)c2cnn(-c3nn4cccc4c(=O)[nH]3)c2C)CC1` [Q-1110]: 2 nM and 43 nM.
Consider `Cc1c(C(=O)N2CCC(c3cccnc3Cl)CC2)cnn1-c1nn2cccc2c(=O)[nH]1` [Q-1111], for which the results for the IC50 in experiment [1] and in experiment [2] were 1 nM and 15 nM, respectively.
The matching figures for `CCC(=O)C1CCN(C(=O)c2cnn(-c3nn4cccc4c(=O)[nH]3)c2C)CC1` [Q-1112]: 1 nM and 37 nM.
The corresponding values for `CCC(=O)C1CCN(C(=O)c2cnn(-c3nc4c(c(=O)[nH]3)CCC4)c2C)CC1` [Q-1113] are 1 nM and 16 nM.
As to `Cc1c(C(=O)N2C3CCC2CN(C2CCC2)C3)cnn1-c1nn2cccc2c(=O)[nH]1` [Q-1114], the IC50 stood at 1 nM in experiment [1] and 24 nM in experiment [2].
The corresponding values for `Cc1c(C(=O)N2CCC(c3ccc(F)cn3)CC2)cnn1-c1nn2cccc2c(=O)[nH]1` [Q-1115] are 1 nM and 45 nM.
The matching figures for `Cc1c(C(=O)N2CCC(c3ccc(Cl)nc3)CC2)cnn1-c1nn2cccc2c(=O)[nH]1` [Q-1116]: 1 nM and 76 nM.
The matching figures for `Cc1c(C(=O)N2CCC(c3cccc(F)n3)CC2)cnn1-c1nn2cccc2c(=O)[nH]1` [Q-1117]: 1 nM and 20 nM.
Turning to `Cc1c(C(=O)N2CCCC(O)(C(F)(F)F)CC2)cnn1-c1nn2cccc2c(=O)[nH]1` (stereo not shown) [Q-1118], the IC50 in experiment [1] stood at 1 nM; in experiment [2], 110 nM.
The corresponding values for `Cc1c(C(=O)N2CCCC(F)(F)CC2)cnn1-c1nn2cccc2c(=O)[nH]1` [Q-1119] are 2 nM and 370 nM.
The corresponding values for `Cc1c(C(=O)N2CCN(C3CCC3(F)F)CC2)cnn1-c1nn2cccc2c(=O)[nH]1` (stereo not shown) [Q-1120] are 1 nM and 97 nM.
